According to BindingDB's records for patent US20250115583 (Corcept Therapeutics, 2025):

Target: T1, Glucocorticoid receptor (Homo sapiens, UniProt P04150)
T1 sequence (P04150 whole entry): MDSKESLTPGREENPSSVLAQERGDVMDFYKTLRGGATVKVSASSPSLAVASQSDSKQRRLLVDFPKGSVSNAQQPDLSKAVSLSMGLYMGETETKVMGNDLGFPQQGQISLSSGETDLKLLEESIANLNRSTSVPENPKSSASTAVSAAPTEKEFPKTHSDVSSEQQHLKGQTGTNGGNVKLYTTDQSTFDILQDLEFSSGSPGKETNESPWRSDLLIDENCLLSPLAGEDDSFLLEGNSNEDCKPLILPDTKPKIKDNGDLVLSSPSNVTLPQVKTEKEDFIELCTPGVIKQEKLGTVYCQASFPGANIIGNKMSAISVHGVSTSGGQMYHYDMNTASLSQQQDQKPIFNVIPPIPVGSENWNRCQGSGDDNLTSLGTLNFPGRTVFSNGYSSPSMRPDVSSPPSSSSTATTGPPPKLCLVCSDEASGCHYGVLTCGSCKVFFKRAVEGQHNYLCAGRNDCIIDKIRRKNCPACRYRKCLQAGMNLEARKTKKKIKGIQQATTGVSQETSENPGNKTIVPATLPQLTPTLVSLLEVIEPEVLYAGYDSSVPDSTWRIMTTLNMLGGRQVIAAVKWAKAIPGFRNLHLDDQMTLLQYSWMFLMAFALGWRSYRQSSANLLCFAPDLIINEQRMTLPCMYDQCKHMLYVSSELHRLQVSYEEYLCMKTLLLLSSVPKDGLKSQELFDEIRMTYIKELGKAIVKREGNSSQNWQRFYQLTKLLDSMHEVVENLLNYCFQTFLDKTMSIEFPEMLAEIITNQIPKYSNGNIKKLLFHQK
Assay: GR Binding Assay
Description: Binding of test compounds to the glucocorticoid receptor (GR) is determined using a fluorescence polarisation (FP) assay utilising a recombinant ligand binding domain (LBD) of GR. The test compounds are assessed by their ability to displace a fluorescently tagged ligand and detection of the resulting decrease in fluorescence polarisation.

Row | Ki | Structure (SMILES)
1 | 360 nM | Cc1cc2c(cnn2-c2ccc(F)cc2)cc1[C@@]12CN(S(=O)(=O)c3cnn(C)n3)C[C@@H]1[C@H]2C(=O)N1CCC1 [US20250115583, Example 59]
2 | 19 nM | Cc1cc2c(cnn2-c2ccc(F)cc2)cc1[C@@]12CN(C(=O)c3nn(C)cc3Cl)C[C@@H]1[C@H]2c1ccccc1 [US20250115583, Example 178]
